Experimental data taken from patent US6482921B1, “Uridyl peptide antibiotic (UPA) derivatives, their synthesis and use” (Essential Therapeutics, Inc., priority 1999, dated 2002).
Converted amounts (≈) assume the structure as drawn. Read-outs that look alike come from different tables or passages of the source.

Key:
[1] = test system: Escherichia Coli MC 4100 AcrAB UPA3r; assay: MIC broth microdilution, E. coli MC 4100 AcrAB UPA3r (ΔAcrAB, UPA resistant); format: cell-based; settings: E. coli AcrAB UPA3^r
[2] = test system: Staphylococcus aureus ATCC 29213; assay: MIC broth microdilution, S. aureus ATCC 29213 (wild type); format: cell-based; settings: S. aureus ATCC 29213
[3] = test system: Pasteurella multocida pm002; assay: MIC broth microdilution, P. multocida pm002 (wild type); format: cell-based
[4] = test system: Escherichia Coli MC 4100 AcrAB; assay: MIC broth microdilution, E. coli MC 4100 AcrAB (ΔAcrAB); format: cell-based; settings: E. coli AcrAB
[5] = test system: Pseudomonas aeruginosa PAM 1154; assay: MIC broth microdilution, P. aeruginosa PAM 1154 (OprM::Hg); format: cell-based; settings: P. aeruginosa PAM 1154 OprM::Hg
[6] = test system: Mycobacterium tuberculosis TN913; assay: MIC agar dilution, M. tuberculosis TN913; format: cell-based
[7] = test system: Mycobacterium tuberculosis H37Rv; assay: MIC agar dilution, M. tuberculosis H37Rv; format: cell-based
[8] = test system: Staphylococcus aureus 8325-4; assay: MIC broth microdilution, S. aureus 8325-4 (wild type); format: cell-based; settings: S. aureus 8325-4
[9] = test system: Escherichia Coli MC 4100; assay: MIC broth microdilution, E. coli MC 4100 (wild type); format: cell-based; settings: E. coli MC 4100
[10] = test system: Pseudomonas aeruginosa PAM 1020; assay: MIC broth microdilution, P. aeruginosa PAM 1020 (wild type); format: cell-based; settings: P. aeruginosa PAM 1020
[11] = test system: Pseudomonas aeruginosa PAM 1323; assay: MIC broth microdilution, P. aeruginosa PAM 1323 (medium level UPA resistance); format: cell-based
[12] = test system: Pseudomonas aeruginosa PAM 1135; assay: MIC broth microdilution, P. aeruginosa PAM 1135 (high level UPA resistance); format: cell-based; settings: P. aeruginosa PAM 1135 UPA1^r
[13] = test system: Mycobacterium fortuitum ATCC 6841; assay: MIC broth microdilution, M. fortuitum ATCC 6841; settings: 72 hours at 35° C., CAMHB
[14] = test system: Mycobacterium smegmatis ATCC 19420; assay: MIC broth microdilution, M. smegmatis ATCC 19420; settings: 72 hours at 35° C., CAMHB
[15] = agar dilution, Middlebrook 7H10 agar, four weeks at 35° C., 0, 1, 10 and 30 tested

| SMILES | MIC (μg/ml) Broth microdilution [1] [µg/mL] | MIC (μg/ml) Broth microdilution [2] [µg/mL] | MIC (μg/ml) Broth microdilution [3] [µg/mL] | MIC (μg/ml) Broth microdilution [4] [µg/mL] | MIC (μg/ml) Broth microdilution [5] [µg/mL] | MIC TN913 (SENSITIVE) [6] [µg/mL] | MIC H37RV (SENSITIVE) [7] [µg/mL] | MIC (μg/ml) Broth microdilution [8] [µg/mL] | MIC (μg/ml) Broth microdilution [9] [µg/mL] | MIC (μg/ml) Broth microdilution [10] [µg/mL] | MIC (μg/ml) Broth microdilution [11] [µg/mL] | MIC (μg/ml) Broth microdilution [12] [µg/mL] | MIC Broth microdilution M. fortuitum ATCC 6841 [13] [µg/mL] | MIC Broth microdilution M. smegmatis ATCC19420 [14] [µg/mL] | MIC TN913 (SENSITIVE) [6, 15] [µg/mL] | MIC H37RV (SENSITIVE) [7, 15] [µg/mL] |
| --- | --- | --- | --- | --- | --- | --- | --- | --- | --- | --- | --- | --- | --- | --- | --- | --- |
| CC(C)C[C@H](NC(=O)N[C@@H](Cc1c[nH]c2ccccc12)C(=O)O)C(=O)N[C@H](C(=O)NC[C@H]1C[C@@H](O)[C@H](n2ccc(=O)[nH]c2=O)O1)[C@H](C)N(C)C(=O)CN [Compound 109] | 8 (≈ 10.8 µM) | >512 | 128 (≈ 173 µM) | <1 | <1 | 30 (≈ 40.4 µM) | >30 | >512 | 128 (≈ 173 µM) | 4 (≈ 5.39 µM) | 128 (≈ 173 µM) | >512 | – | – | – | – |
| CC(N)C(=O)N(C)C(C)C(NC(=O)C(Cc1csc2ccccc12)NC(=O)NC(Cc1ccc(O)cc1)C(=O)O)C(=O)NCC1CC(O)C(n2ccc(=O)[nH]c2=O)O1 [Compound 130, 1-[5′-[(2S,3S)-N^3-L-Alanyl-N^2-[N-[[(1S)-1-carboxy-4-hydroxyphenethyl]carbamoyl]-L-benzothienylalanyl]-N^3-methyl-2,3-diaminobutyramidol-3′,5′-dideoxy-α-L-arabinofuranosyl]uracil] | 16 (≈ 19.4 µM) | 128 (≈ 156 µM) | 512 (≈ 622 µM) | 8 (≈ 9.72 µM) | 16 (≈ 19.4 µM) | – | – | 256 (≈ 311 µM) | 64 (≈ 77.8 µM) | 64 (≈ 77.8 µM) | >512 | >512 | 32 (≈ 38.9 µM) | 8 (≈ 9.72 µM) | – | – |
| CC(N)C(=O)N(C)C(C)C(NC(=O)C(Cc1ccc(I)cc1)NC(=O)NC(Cc1ccc(O)cc1)C(=O)O)C(=O)NCC1CC(O)C(n2ccc(=O)[nH]c2=O)O1 [Compound 134, 1-[5′-[(2S,3S)-N^3-L-Alanyl-N^2-[N-[[(1S)-1-carboxy-4-hydroxyphenethyl]carbamoyl]-L-4-iodophenylalanyl]-N^3-methyl-2,3-diaminobutyramido]-3′,5′-dideoxy-α-L-arabinofuranosyl]uracil] | 32 (≈ 35.8 µM) | 512 (≈ 574 µM) | >512 | <1 | 32 (≈ 35.8 µM) | – | – | 512 (≈ 574 µM) | 128 (≈ 143 µM) | 256 (≈ 287 µM) | >512 | >512 | 32 (≈ 35.8 µM) | 16 (≈ 17.9 µM) | – | – |
| CC(N)C(=O)N(C)C(C)C(NC(=O)C(Cc1ccc(Cl)cc1)NC(=O)NC(Cc1ccc(O)cc1)C(=O)O)C(=O)NCC1CC(O)C(n2ccc(=O)[nH]c2=O)O1 [Compound 135, 1-[5′-[(2S,3S)-N^3-L-Alanyl-N^2-[N-[[(1S)-1-carboxy-4-hydroxyphenethyl]carbamoyl]-L-4-chlorophenylalanyl]-N^3-methyl-2,3-diaminobutyramido]-3′,5′-dideoxy-α-L-arabinofuranosyl]uracil] | 2 (≈ 2.5 µM) | 512 (≈ 639 µM) | 512 (≈ 639 µM) | <1 | 16 (≈ 20 µM) | – | – | >512 | 8 (≈ 9.98 µM) | 64 (≈ 79.9 µM) | >512 | >512 | 64 (≈ 79.9 µM) | 16 (≈ 20 µM) | – | – |
| CC(N)C(=O)N(C)C(C)C(NC(=O)C(CC1CCCCC1)NC(=O)NC(Cc1c[nH]c2ccccc12)C(=O)O)C(=O)NCC1CC(O)C(n2ccc(=O)[nH]c2=O)O1 [Compound 136, 1-[5-(2S 3S)-N^3-L-Alanyl-N^2-[N-[[(1S)-1-carboxy-2-indol-3-ylethyl]carbamoyl]-L-cyclohexylalanyl]-N^3-methyl-2,3-diaminobutyramido]-3′,5′-dideoxy-α-L-arabinofuranosyl]uracil] | 64 (≈ 80.4 µM) | >512 | >512 | 4 (≈ 5.03 µM) | 64 (≈ 80.4 µM) | – | – | >512 | >512 | 128 (≈ 161 µM) | >512 | >512 | 128 (≈ 161 µM) | 8 (≈ 10.1 µM) | – | – |
| CC(N)C(=O)N(C)C(C)C(NC(=O)C(Cc1ccc(C(F)(F)F)cc1)NC(=O)NC(Cc1c[nH]c2ccccc12)C(=O)O)C(=O)NCC1CC(O)C(n2ccc(=O)[nH]c2=O)O1 [Compound 146, 1-[5′-[(2S,3S)-N^3-L-Alanyl-N^2-[N-[[(1S)-1-carboxy-2-indol-3-ylethyl]carbamoyl]-L-4-(trifluoromethyl)phenylalanyl]-N^3-methyl-2,3-diaminobutyramido]-3′,5′-dideoxy-α-L-arabinofuranosyl]uracil] | 64 (≈ 74.6 µM) | 512 (≈ 597 µM) | 64 (≈ 74.6 µM) | 2 (≈ 2.33 µM) | 32 (≈ 37.3 µM) | 10 (≈ 11.7 µM) | 10 (≈ 11.7 µM) | 256 (≈ 298 µM) | 512 (≈ 597 µM) | 256 (≈ 298 µM) | >512 | >512 | – | – | – | – |
| CC(C(NC(=O)C(Cc1ccccc1)NC(=O)NC(Cc1c[nH]c2ccccc12)C(=O)O)C(=O)NCC1CC(O)C(n2ccc(=O)[nH]c2=O)O1)N(C)C(=O)C(N)Cc1ccccc1 [Compound 156, 1-[5′-[(2S,3S)-N^2-[N-[[(1S)-1-Carboxy-2-indol-3-ylethyl]carbamoyl]-L-phenylalanyl]-N^3-L-phenylalanyl-N^3-methyl-2,3-diaminobutyramido]-3′,5′-dideoxy-α-L-arabinofuranosyl]uracil] | 512 (≈ 591 µM) | >512 | 256 (≈ 296 µM) | 4 (≈ 4.62 µM) | 32 (≈ 37 µM) | – | – | >512 | 512 (≈ 591 µM) | 32 (≈ 37 µM) | 256 (≈ 296 µM) | 256 (≈ 296 µM) | 256 (≈ 296 µM) | 16 (≈ 18.5 µM) | – | – |
| CC(N)C(=O)N(C)C(C)C(NC(=O)C(Cc1ccc(F)cc1)NC(=O)NC(Cc1ccc(O)cc1)C(=O)O)C(=O)NCC1CC(O)C(n2ccc(=O)[nH]c2=O)O1 [Compound 157, 1-[5′-[(2S,3S)-N^3-L-Alanyl-N^2-[N-[[(1S)-1-carboxy-4-hydroxyphenethyl]carbamoyl]-L-4-fluorophenylalanyl]-N^3-methyl-2,3-diaminobutyramido]-3′,5′-dideoxy-α-L-arabinofuranosyl]uracil] | <1 | >512 | 256 (≈ 326 µM) | <1 | 16 (≈ 20.4 µM) | 10 (≈ 12.7 µM) | 10 (≈ 12.7 µM) | 512 (≈ 652 µM) | 4 (≈ 5.1 µM) | 128 (≈ 163 µM) | >512 | >512 | – | – | – | – |
| C[C@H](N)C(=O)N(C)[C@@H](C)[C@H](NC(=O)[C@H](Cc1ccccc1)NC(=O)N[C@@H](Cc1ccc(O)cc1)C(=O)O)C(=O)NC[C@H]1C[C@@H](O)[C@H](n2ccc(=O)[nH]c2=O)O1 [Compound 160] | 4 (≈ 5.22 µM) | 512 (≈ 668 µM) | 256 (≈ 334 µM) | <1 | 8 (≈ 10.4 µM) | – | – | 512 (≈ 668 µM) | 32 (≈ 41.7 µM) | 16 (≈ 20.9 µM) | >512 | >512 | 128 (≈ 167 µM) | 16 (≈ 20.9 µM) | – | – |
| C[C@H](NC(=O)N[C@@H](Cc1c[nH]c2ccccc12)C(=O)O)C(=O)N[C@H](C(=O)N/C=C1/C[C@@H](O)[C@H](n2ccc(=O)[nH]c2=O)O1)[C@H](C)N(C)C(=O)[C@@H](N)Cc1cccc(O)c1 [Pacidamycin 4, reference compound] | – | – | – | – | – | – | – | – | – | – | – | – | – | – | >30 | >30 |
